Reference: PubChem BioAssay (NCI)
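Growth conditions: 96-well plates. Treatment: test compound, 48 hours, 5 concentrations. Analysis: linear interpolation between bracketing concentrations; unreached endpoints set to highest concentration. GI50 marks 50% less growth. TGI: concentration producing complete growth inhibition.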

Key:
Assay in all cases: DTP human tumour cell line panel, 48 h
[1] = tested on: 786-0 renal
[2] = tested on: A498 renal
[3] = tested on: A549 NSCLC
[4] = tested on: ACHN renal
[5] = tested on: BT-549 breast
[6] = tested on: CAKI-1 renal
[7] = tested on: CCRF-CEM leukemia
[8] = tested on: COLO 205 colon
[9] = tested on: DU-145 prostate
[10] = tested on: EKVX NSCLC
[11] = tested on: HCC-2998 colon
[12] = tested on: HCT-116 colon
[13] = tested on: HCT-15 colon
[14] = tested on: HL-60(TB) leukemia
[15] = tested on: HOP-62 NSCLC
[16] = tested on: HOP-92 NSCLC
[17] = tested on: HS 578T breast
[18] = tested on: HT29 colon
[19] = tested on: IGROV1 ovarian
[20] = tested on: K-562 leukemia
[21] = tested on: KM12 colon
[22] = tested on: LOX IMVI melanoma
[23] = tested on: M14 melanoma
[24] = tested on: MALME-3M melanoma
[25] = tested on: MCF7 breast
[26] = tested on: MDA-MB-231 breast
[27] = tested on: MDA-MB-435
[28] = tested on: MOLT-4 leukemia
[29] = tested on: NCI-H226 lung
[30] = tested on: NCI-H23 lung
[31] = tested on: NCI-H460 lung
[32] = tested on: NCI-H522 lung
[33] = tested on: NCI/ADR-RES ovarian
[34] = tested on: OVCAR-3 ovarian
[35] = tested on: OVCAR-4 ovarian
[36] = tested on: OVCAR-5 ovarian
[37] = tested on: OVCAR-8 ovarian
[38] = tested on: PC-3 prostate
[39] = tested on: RPMI-8226 leukemia
[40] = tested on: RXF 393 renal
[41] = tested on: SF-268 CNS
[42] = tested on: SF-295 CNS
[43] = tested on: SF-539 CNS
[44] = tested on: SK-MEL-2 melanoma
[45] = tested on: SK-MEL-28 melanoma
[46] = tested on: SK-MEL-5 melanoma
[47] = tested on: SK-OV-3 ovarian
[48] = tested on: SN12C renal
[49] = tested on: SNB-19 CNS
[50] = tested on: SNB-75 CNS
[51] = tested on: SR leukemia
[52] = tested on: SW-620 colon
[53] = tested on: T-47D breast
[54] = tested on: TK-10 renal
[55] = tested on: U251 CNS
[56] = tested on: UACC-257 melanoma
[57] = tested on: UACC-62 melanoma
[58] = tested on: UO-31 renal

CCC(=O)O[C@H]1CC[C@H]2[C@@H]3CC[C@H]4CC(=O)[C@H](C)C[C@]4(C)[C@H]3CC[C@]12C
GI50 [1]: 43.3 µM | TGI [1]: > 100 µM | GI50 [2]: 28 µM | TGI [2]: > 100 µM | GI50 [3]: 19.5 µM | TGI [3]: > 57.5 µM | GI50 [4]: 38 µM | TGI [4]: > 100 µM | GI50 [5]: 37 µM | TGI [5]: > 100 µM | GI50 [6]: > 41.7 µM | TGI [6]: > 100 µM | GI50 [7]: 18.8 µM | TGI [7]: > 100 µM | GI50 [8]: 28.3 µM | TGI [8]: > 100 µM | GI50 [9]: > 79.7 µM | TGI [9]: > 100 µM | GI50 [10]: 22.1 µM | TGI [10]: > 100 µM | GI50 [11]: 49.7 µM | TGI [11]: > 100 µM | GI50 [12]: 4.49 µM | TGI [12]: > 42.6 µM | GI50 [13]: 37.7 µM | TGI [13]: > 100 µM | GI50 [14]: 5.57 µM | TGI [14]: 24.3 µM | GI50 [15]: 37.7 µM | TGI [15]: > 100 µM | TGI [16]: 63 µM | GI50 [17]: 44 µM | TGI [17]: > 100 µM | GI50 [18]: 19.2 µM | TGI [18]: > 100 µM | GI50 [19]: > 60.5 µM | TGI [19]: > 100 µM | GI50 [20]: 5.51 µM | TGI [20]: > 59.5 µM | GI50 [21]: 34.6 µM | TGI [21]: > 100 µM | GI50 [22]: 25.2 µM | TGI [22]: > 100 µM | GI50 [23]: 48.1 µM | TGI [23]: > 100 µM | GI50 [24]: 45.7 µM | TGI [24]: > 100 µM | GI50 [25]: 23.9 µM | TGI [25]: > 66.1 µM | GI50 [26]: > 90.8 µM | TGI [26]: > 100 µM | GI50 [27]: 48.7 µM | TGI [27]: > 100 µM | GI50 [28]: 9.11 µM | TGI [28]: > 85.6 µM | GI50 [29]: > 96.2 µM | TGI [29]: > 100 µM | GI50 [30]: 43.6 µM | TGI [30]: > 100 µM | GI50 [31]: 13 µM | TGI [31]: 97.4 µM | GI50 [32]: 38.4 µM | TGI [32]: > 100 µM | GI50 [33]: 38.3 µM | TGI [33]: > 100 µM | GI50 [34]: 31.2 µM | TGI [34]: > 84.1 µM | GI50 [35]: > 79.1 µM | TGI [35]: > 100 µM | GI50 [36]: 74.8 µM | TGI [36]: > 100 µM | GI50 [37]: 43.1 µM | TGI [37]: > 100 µM | GI50 [38]: 10.5 µM | TGI [38]: > 100 µM | GI50 [39]: 2.52 µM | TGI [39]: 13 µM | GI50 [40]: 30.5 µM | TGI [40]: > 100 µM | GI50 [41]: > 75.7 µM | TGI [41]: > 100 µM | GI50 [42]: 20.9 µM | TGI [42]: > 78 µM | GI50 [43]: > 83.5 µM | TGI [43]: > 100 µM | GI50 [44]: 32 µM | TGI [44]: > 100 µM | GI50 [45]: > 88.7 µM | TGI [45]: > 100 µM | GI50 [46]: 5.89 µM | TGI [46]: > 60.9 µM | GI50 [47]: > 81.7 µM | TGI [47]: > 100 µM | GI50 [48]: > 85.2 µM | TGI [48]: > 100 µM | GI50 [49]: > 100 µM | TGI [49]: > 100 µM | GI50 [50]: > 100 µM | TGI [50]: > 100 µM | GI50 [51]: 3.21 µM | TGI [51]: 21.8 µM | GI50 [52]: 31.9 µM | TGI [52]: > 100 µM | GI50 [53]: 26 µM | TGI [53]: > 100 µM | GI50 [54]: 43.7 µM | TGI [54]: > 100 µM | GI50 [55]: 34 µM | TGI [55]: > 100 µM | GI50 [56]: 20.8 µM | TGI [56]: 92.7 µM | GI50 [57]: 13.9 µM | TGI [57]: > 100 µM | GI50 [58]: 24.5 µM | TGI [58]: > 100 µM
